From the supplement of paper PMC10307832

What was measured:
Assay in all cases: relative viability (nuclei count vs DMSO), 5 days (fraction); higher = more cells survive
Imatinib + Palbociclib = compound: Cc1ccc(NC(=O)c2ccc(CN3CCN(C)CC3)cc2)cc1Nc1nccc(-c2cccnc2)n1 [Imatinib] + CC(=O)c1c(C)c2cnc(Nc3ccc(N4CCNCC4)cn3)nc2n(C2CCCC2)c1=O [Palbociclib] (partner 0.5 µM)
Outline: (§1)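 Cells from lung cancer lines were seeded into 1536-well plates and, one day later, dosed by pin tool. Treatments were either a single drug or a fixed dose of an anchor drug with five library-drug doses (not always all listed) in √10 steps. After 5 days, nuclei were stained in a one-step fixation (final 0.05% Triton X-100, 1% formaldehyde, 1 ug/ml Hoechst) and counted on 4× images, and relative viability is the treated-to-vehicle nuclei ratio, as the median of duplicate plates.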

Imatinib + Navitoclax = compound: Cc1ccc(NC(=O)c2ccc(CN3CCN(C)CC3)cc2)cc1Nc1nccc(-c2cccnc2)n1 [Imatinib] + CC1(C)CCC(c2ccc(Cl)cc2)=C(CN2CCN(c3ccc(C(=O)NS(=O)(=O)c4ccc(N[C@H](CCN5CCOCC5)CSc5ccccc5)c(S(=O)(=O)C(F)(F)F)c4)cc3)CC2)C1 [Navitoclax] (partner 0.5 µM)
Outline: as §1

Imatinib + Tozasertib = compound: Cc1ccc(NC(=O)c2ccc(CN3CCN(C)CC3)cc2)cc1Nc1nccc(-c2cccnc2)n1 [Imatinib] + Cc1cc(Nc2cc(N3CCN(C)CC3)nc(Sc3ccc(NC(=O)C4CC4)cc3)n2)n[nH]1 [Tozasertib] (partner 0.1 µM)
Outline: as §1

Imatinib + AZD7762 = compound: Cc1ccc(NC(=O)c2ccc(CN3CCN(C)CC3)cc2)cc1Nc1nccc(-c2cccnc2)n1 [Imatinib] + NC(=O)Nc1cc(-c2cccc(F)c2)sc1C(=O)N[C@H]1CCCNC1 [AZD7762] (partner 0.2 µM)
Outline: as §1

Cell Line	relative viability (Imatinib + Palbociclib; first compound 0.02 µM)	relative viability (Imatinib + Palbociclib; first compound 0.2 µM)	relative viability (Imatinib + Palbociclib; first compound 0.6325 µM)	relative viability (Imatinib + Palbociclib; first compound 2 µM)	relative viability (Imatinib + Navitoclax; first compound 0.02 µM)	relative viability (Imatinib + Navitoclax; first compound 0.06325 µM)	relative viability (Imatinib + Navitoclax; first compound 0.2 µM)	relative viability (Imatinib + Navitoclax; first compound 0.6325 µM)	relative viability (Imatinib + Navitoclax; first compound 2 µM)	relative viability (Imatinib + Tozasertib; first compound 0.02 µM)	relative viability (Imatinib + Tozasertib; first compound 0.06325 µM)	relative viability (Imatinib + Tozasertib; first compound 0.2 µM)	relative viability (Imatinib + Tozasertib; first compound 0.6325 µM)	relative viability (Imatinib + Tozasertib; first compound 2 µM)	relative viability (Imatinib + AZD7762; first compound 0.02 µM)	relative viability (Imatinib + AZD7762; first compound 0.2 µM)	relative viability (Imatinib + AZD7762; first compound 0.6325 µM)	relative viability (Imatinib + AZD7762; first compound 2 µM)	relative viability (Imatinib + Palbociclib; first compound 0.06325 µM)	relative viability (Imatinib + AZD7762; first compound 0.06325 µM)
LXF-289	0.602	0.655	0.556	0.578	0.98	0.944	1.08	0.907	0.924	0.22	0.162	0.21	0.232	0.187	1.13	1.25	1.04	1.09		
HCC-366	0.435	0.502	0.35	0.412	1.02		1.13	1.09	1.07	0.193		0.109	0.0574	0.0718	0.367	0.288	0.208	0.181	0.425	0.364
IA-LM					0.909	0.813	1.05	0.83	0.754											
NCI-H1755	0.438	0.436	0.429	0.423	1.02	1.06	1.12	0.988	1.04	0.612	0.585	0.592	0.609	0.516	0.451	0.413	0.421	0.434	0.496	0.458
NCI-H460	0.278	0.191	0.196	0.104	1.65	1.58	1.96	1.17	1.3	0.445	0.576	0.417	0.0905	0.0547	0.658	0.606	0.489	0.509	0.22	0.783
SW 1573	0.404	0.41	0.265	0.405	1.12	0.955	1.21	1.06	1.1	0.174	0.231	0.202	0.131	0.175					0.435	
NCI-H2228	1.06	0.664	0.916	0.697	0.982	0.891	1.11	0.922	0.955	0.196		0.205	0.186	0.203					0.73	
201T	0.337	0.35	0.329	0.361	1.24		1.19	1.2	1.18	0.98		1.06		0.859	0.72	0.589	0.541	0.517	0.336	0.399
ABC-1	0.749	0.741	0.872	0.664						0.211		0.221	0.185	0.141	0.821	0.786		0.726		
NCI-H2023	0.537	0.387		0.345	1.08	1.23	1.12	0.958	0.898	0.461	0.319	0.254	0.259	0.18					0.494	
NCI-H2126	0.375	0.37	0.368	0.321	0.883		0.865	0.851	0.824	0.921		0.872	0.352	0.739		1.03	0.894	0.981	0.352	0.668
COR-L 105	0.425	0.454	0.395	0.428	1.01	0.879	0.756	0.743	0.605	0.365	0.364	0.359	0.317	0.311					0.367	
UMC-11	0.333	0.333	0.33	0.269	0.303	0.35	0.291	0.334	0.329	0.192	0.205	0.216	0.211	0.208					0.337	
NCI-H2342	0.506	0.504	0.503	0.539						0.6	0.511	0.499	0.502	0.494	0.434	0.443	0.455	0.553	0.586	0.493
SK-LU-1	0.427	0.418	0.34	0.425	1.14		0.885	0.861	1.01	0.336	0.322	0.316	0.303	0.28					0.427	
NCI-H1650	0.341	0.342	0.295	0.301	1.39	1.35	1.25	1.31	1.13	0.449	0.405	0.337	0.37	0.303					0.344	
NCI-H2085	0.447	0.506	0.481	0.47	1.16	1.07	1.33	1.13		0.823	0.795	0.877	0.553	0.489	1.03		1.14	0.879	0.45	0.87
